Patent US9220261B1, “Volatile blends and the effects thereof on the navel orangeworm moth” (The United States of America, as represented by the …, priority 2010, dated 2015)

Key:
[1] = system: NOW; test: Electroantennographic studies of CONO; design: species or system Amyelois transitella; settings: lower than the positive standard
[2] = system: NOW; test: Field trapping screening studies of individual CONO; assay type: in vivo, Amyelois transitella; settings: September 2 to Oct. 5, 2009, almond and pistachio orchards
Excerpt: FAB.x and GAVA.x blends were mixed with another component, conophthorin (CONO). CONO increased the efficacy of the blends in the FAB4 and GAVA series. This was somewhat unexpected as CONO alone is not attractive to NOW. […] Subsequent field trapping screening studies of individual CONO between September 2 and Oct. […] Virgin female NOW-baited traps at the same time indicated pressures of NOW in the orchards.

[3] = system: female NOW antennae; test: Electroantennogram (EAG) bioassay, female NOW antennae; design: species or system Amyelois transitella; settings: Example 1; 50 μg on disc (almond meal 3.1 mg); raw response minus NegCtrl
Description: The EAG experiments were performed by similar protocols described previously (Beck et al., 2009, supra). The antennae of sexed NOW were excised, positioned on a fork electrode using electrode gel, and connected to an IDAC-4 acquisition controller and electrophysiological amplifier using PC-based software (Syntech, Kirchzarten, Germany). The antennae were humidified with a stream of purified air bubbled through distilled water at a flow rate of 200 ml/min. The individual compounds for EAG analysis (50 μg; 10 μl of a 5 μg/μl solution in pentane) were loaded onto oven-dried 0.64 cm assay discs, allowed to air-dry for five min, inserted into 14.6 cm Pasteur pipets and the ends temporarily capped with parafilm. […] For almond meal analyses, 3.1 mg was placed in a Pasteur pipet containing very lightly packed glass wool. Negative control ([…]) discs were prepared using a similar method, but with 10 μl of pentane prior to solvent evaporation. Positive control (PosCtrl) discs were prepared using the major sex pheromone component (Z,Z)-11,13-hexadecadienal (50 μg, Suterra LLC, Bend, Oreg.). The pipets loaded with the individual compounds were attached via tubing to a stimulus controller unit (Syntech). The antennae were exposed to each compound by a two-second puff of air and the resulting response recorded. […]

SMILES | electroantennographic activity [1] | attraction of NOW in field trapping [2] | EAG antennal response from female NOW, normalized [3]
C[C@@H]1CCC[C@@]2(CCCO2)O1 [CONO, 7-methyl-1,6-dioxaspiro[4.5]decane] | mildly active | did not attract any NOW | –
CC(=O)c1ccccc1 [acetophenone] | – | – | 397 μV
Oc1ccccc1 [phenol] | – | – | 78 μV
